Source: US9057090B2, “Method of identifying an agent for inhibiting odor of pyrazine derivatives” (Kao Corporation, priority 2012, dated 2015)

Experiments:
[1] = molecular target: T1, olfactory receptor OR5K1 (Homo sapiens, UniProt Q8NHB7); assay: Luciferase reporter gene assay: response of olfactory receptor to pyrazine derivatives; format: cell-based; settings: 0, 3, 10, 30, 100, 300 and 1000 μM; HEK293 cells expressing OR5K1 with RTP1S variant; FIG. 2
T1 construct: expressed in transfected cells; host or cells: HEK293
T1 sequence (Q8NHB7 1-308): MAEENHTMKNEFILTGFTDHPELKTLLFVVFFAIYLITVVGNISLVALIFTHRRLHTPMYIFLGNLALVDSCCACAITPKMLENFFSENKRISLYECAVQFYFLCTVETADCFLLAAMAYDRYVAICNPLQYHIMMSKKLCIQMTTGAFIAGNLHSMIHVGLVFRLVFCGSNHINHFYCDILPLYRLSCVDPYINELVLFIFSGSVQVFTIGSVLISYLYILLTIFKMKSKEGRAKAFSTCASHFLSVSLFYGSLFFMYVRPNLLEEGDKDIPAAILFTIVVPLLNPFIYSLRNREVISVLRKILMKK
Experimental: HEK293 cells expressing 373 types of human olfactory receptors were produced. A reaction solution having a composition shown in Table 1 was prepared and left to stand in a clean bench for 15 min and then was dispensed in each well of a 96-well plate (Becton, Dickinson and Company). Subsequently, HEK293 cells (100 μL, 3×10^5 cells/cm^2) were seeded in each well and cultured in an incubator at 37° C. and 5% CO2 for 24 hr.
An olfactory receptor expressed in HEK293 cells couples with endogenous Gas in the cells to activate adenylate cyclase and thereby increases the amount of intracellular cAMP. In this study, the response of a pyrazine derivative was measured by luciferase reporter gene assay which monitors an increase in the amount of intracellular cAMP as the luminescence value derived from a firefly luciferase gene (fluc2P-CRE-hygro). A Renilla luciferase gene was fused downstream of a CMV promoter (hRluc-CMV) and was also introduced to HEK293 cells as an internal standard to correct errors in transgenic efficiency and number of cells.
The culture medium was removed from the culture produced in the above 3), and 75 μL of a solution prepared with a CD293 medium (Invitrogen Inc.) so as to contain a pyrazine derivative (1 mM 2,6-dimethylpyrazine) was added thereto. The cells were cultured in a CO2 incubator for 2.5 hr to sufficiently express the luciferase gene in the cells. The luciferase activity was measured with a Dual-Glo™ luciferase assay system (Promega Corporation) in accordance with the operating manual of the system. The fold increases were calculated by dividing the luminescence value derived from firefly luciferase induced by stimulation with a pyrazine derivative at each concentration by the luminescence value in cells not stimulated with the pyrazine derivative and were used as an index of response strength.
Olfactory receptor OR5K1 (SEQ ID NO: 2) was expressed in HEK293 cells together with an RTP1S variant (SEQ ID NO: 4) by the same procedure as in Example 1, and the dependency of the response on the concentration (0, 3, 10, 30, 100, 300, and 1000 μM) of various pyrazine compounds was investigated. The pyrazine compounds used in this Example were pyrazine and pyrazine derivatives selected from the group consisting of 2-methylpyrazine, 2,3-dimethylpyrazine, 2,5-dimethylpyrazine, 2,3,5-trimethylpyrazine, 2,3,5,6-tetramethylpyrazine and 2-ethylpyrazine.

[2] = molecular target: T1, olfactory receptor OR5K1; assay: Antagonist assay: inhibition of OR5K1 response to 2,6-dimethylpyrazine (luciferase reporter); format: cell-based; settings: HEK293 cells expressing OR5K1; 2,6-dimethylpyrazine 1 mM + test substance 300 μM (cytotoxic flavoring agents re-evaluated at 333 μM + 100 μM); read-out: Inhibition rate (receptor response-inhibiting rate)
Experimental: The receptor response-inhibiting rate of a test substance was calculated as follows. The receptor activity (X−Y) by stimulation with 2,6-dimethylpyrazine alone was determined by subtracting the luminescence value (Y) in cells to which the receptor was introduced but were not stimulated with 2,6-dimethylpyrazine from the luminescence value (X) derived from firefly luciferase induced by stimulation with 2,6-dimethylpyrazine alone. Similarly, the receptor activity (Z−Y) in the presence of a test substance was determined by subtracting the luminescence value (Y) in cells not stimulated with 2,6-dimethylpyrazine from the luminescence value (Z) stimulated with a mixture of 2,6-dimethylpyrazine and the test substance. The reduction rate of the receptor activity (Z−Y) in the presence of a test substance to the receptor activity (X−Y) by stimulation with 2,6-dimethylpyrazine alone was calculated by the following computation expression: Inhibition rate (%)={1−(Z−Y)/(X−Y)}×100, to determine the receptor response-inhibiting rate of the test substance. In the measurement, multiple independent experiments were performed in duplicate, and the average of each experiment was used.

[3] = Sensory test of reduction of the odor of 2,6-dimethylpyrazine in dough; settings: flavoring agent 0.5 μL added to dough 0.5 g containing 1% 2,6-dimethylpyrazine; four panelists; rating 1 to 5; FIG. 3
Experimental: A flavoring agent (0.5 μL) was added to dough (0.5 g) containing 2,6-dimethylpyrazine (1%, and the odor thereof was evaluated by comparing the strength of odor of 2,6-dimethylpyrazine in dough not applied with flavor by the flavoring agent. The sensory evaluation test was performed by four panelists. In the evaluation, a case where a strong odor of 2,6-dimethylpyrazine was smelled was rated as 1, and a case where the odor of 2,6-dimethylpyrazine was not smelled at all was rated as 5.

Molecule | response of OR5K1, dependency on concentration [1] | inhibition at 300 µM [2] [%] | odor of 2,6-dimethylpyrazine in sensory test [3]
Cc1nc(C)c(C)nc1C [2,3,5,6-tetramethylpyrazine] | responded in a dose-dependent manner | – | –
Cc1cnc(C)c(C)n1 [2,3,5-trimethylpyrazine] | responded in a dose-dependent manner | – | –
Cc1nccnc1C [2,3-dimethylpyrazine] | responded in a dose-dependent manner | – | –
Cc1cnc(C)cn1 [2,5-dimethylpyrazine] | responded in a dose-dependent manner | – | –
CCC(O)COC1CCCCC1C(C)(C)C (centres unmarked) [Amber Core, 1-(2-tert-butylcyclohexyloxy)-2-butanol] | – | ≥ 75 | inhibited
CC1(C)CCCC2(C)C1CCC1(C)OCCC12 (centres unmarked) [Ambrotech, dodecahydro-3a,6,6,9a-tetramethyl-naphtho[2,1-b]furan] | – | ≥ 50 | –
C=CCCC(=O)C1=CCCC(C)(C)C1 [Dynascone, 1-(5,5-dimethyl-1-cyclohexen-1-yl)-4-penten-1-one] | – | ≥ 40 | inhibited
CC(=O)C1(C)CC2=C(CCCC2(C)C)CC1C (centres unmarked) [Iso E Super, 7-acetyl-1,2,3,4,5,6,7,8-octahydro-1,1,6,7-tetramethyl-naphthalene] | – | ≥ 75 | –
CC(C=O)C1CCCCC1 (centres unmarked) [Pollenal II, 2-cyclohexylpropanal] | – | ≥ 50 | –
CC(=CCC1CC=C(C)C1(C)C)CO (centres unmarked) [Sandalmysore Core, 2-methyl-4-(2,2,3-trimethyl-3-cyclopenten-1-yl)-2-buten-1-ol] | – | ≥ 50 | inhibited
CC(=O)c1cc2c(cc1C)C(C)(C)C(C)CC2(C)C (centres unmarked) [Tonalid, 1-(5,6,7,8-tetrahydro-3,5,5,6,8,8-hexamethyl-2-naphthalenyl)-ethanone] | – | ≥ 75 | –
CC(=O)C1=C(C)C2CC3(C1)C(C)CCC3C2(C)C (centres unmarked) [acetyl cedrene, 1-(2,3,4,7,8,8a-hexahydro-3,6,8,8-tetramethyl-1H-3a,7-methanoazulen-5-yl)-ethanone] | – | ≥ 50 | –
CCC(=CCC1CC=C(C)C1(C)C)CO (centres unmarked) [bacdanol, 2-ethyl-4-(2,2,3-trimethyl-3-cyclopenten-1-yl)-2-buten-1-ol] | – | ≥ 75 | –
CC=Cc1ccc(OCc2ccccc2)c(OC)c1 [benzyl isoeugenol, 2-methoxy-1-(phenylmethoxy)-4-(1-propenyl)-benzene] | – | ≥ 50 | –
CC(=O)O[C@]1(C)CC[C@@]23C[C@@H]1C(C)(C)[C@@H]2CC[C@H]3C [cedryl acetate] | – | ≥ 50 | –
CC(=O)c1cc(C(C)(C)C)cc2c1C=CC2(C)C [celestolide, 6-tert-butyl-1,1-dimethylinden-4-yl methyl ketone] | – | ≥ 40 | –
O=CC=Cc1ccccc1 [cinnamaldehyde] | – | ≥ 50 | –
CC(C)=CCCC(C)=CC=O [citral, 3,7-dimethyl-2,6-octadienal] | – | ≥ 75 | –
CC(C)=CCCC(C)CC=O (centres unmarked) [citronellal, 3,7-dimethyl-6-octenal] | – | ≥ 50 | –
CC(C)=CCCC(C)CCOCC=O (centres unmarked) [citronellyloxyacetaldehyde, 6,10-dimethyl-3-oxa-9-undecenal] | – | ≥ 40 | –
CC=CC(=O)C1=C(C)C=CCC1(C)C [damascenone, 1-(2,6,6-trimethyl-1,3-cyclohexadien-1-yl)-2-buten-1-one] | – | ≥ 40 | inhibited
CCCCCC1=C(C)CCC1=O [dihydrojasmon, 2-pentyl-3-methyl-2-cyclopenten-1-one] | – | ≥ 40 | –

Molecule | response of OR5K1, dependency on concentration [1] | inhibition at 300 µM [2] [%] | odor of 2,6-dimethylpyrazine in sensory test [3]
O=C1CCCCCCCCCCCC(=O)OCCO1 [ethylene brassylate, 1,4-dioxacyclo-heptadecane-5,17-dione] | – | ≥ 40 | –
C=CCc1ccc(O)c(OC)c1 [eugenol, 1-allyl-3-methoxy-4-hydroxybenzene] | – | ≥ 40 | –
CC(C)=CCC/C(C)=C/CO [geraniol, (E)-3,7-dimethyl-2,6-octadien-1-ol] | – | ≥ 40 | –
CC(C=O)Cc1ccc2c(c1)OCO2 (stereo not drawn) [helional, α-methyl-3,4-methylenedioxyhydrocinnamic aldehyde] | – | – | inhibited
CCCCCCOC(=O)c1ccccc1O [hexyl salicylate] | – | ≥ 40 | –
CC(C=O)c1ccccc1 (centres unmarked) [hydratropic aldehyde, 2-phenyl-propionaldehyde] | – | ≥ 50 | –
C=C(OCC)C1C(C)(C)CC(=O)CC1(C)C [kephalis, 4-(1-ethoxyvinyl)-3,3,5,5-tetramethyl cyclohexanone] | – | ≥ 50 | –
CC(C=O)Cc1ccc(C(C)(C)C)cc1 (stereo not drawn) [lilial, α-methyl-β-(p-tert-butylphenyl)-propionaldehyde] | – | ≥ 50 | inhibited
CC(C)[C@H]1CC[C@@H](CO)CC1 [mayol, cis-4-isopropyl-cyclohexylmethanol] | – | ≥ 40 | –
CC(=O)c1c(C)c([N+](=O)[O-])c(C(C)(C)C)c([N+](=O)[O-])c1C [musk ketone, 4-tert-butyl-2,6-dimethyl-3,5-dinitro-acetophenone] | – | ≥ 40 | –
O=C(OCCc1ccccc1)c1ccccc1O [phenylethyl salicylate] | – | ≥ 75 | –
CC(C)CCCC(C)CCO (centres unmarked) [tetrahydrogeraniol, 3,7-dimethyl-1-octanol] | – | ≥ 50 | –
Cc1ccc(C(C)C)c(O)c1 [thymol, 5-methyl-2-(1-methylethyl)-phenol] | – | ≥ 75 | –
CC1=CC(C)C(C=O)CC1 (centres unmarked) [triplal, 2,4-dimethyl-3-cyclohexene-1-carboxyaldehyde] | – | – | inhibited
CCC=C(C)C(O)CCCCC (centres unmarked) [undecavertol, 4-methyl-3-decen-5-ol] | – | ≥ 75 | inhibited
CCCCCCC(C=O)=Cc1ccccc1 [α-hexylcinnamic aldehyde] | – | – | inhibited
CC(=O)/C(C)=C/C1C(C)=CCCC1(C)C (stereo not drawn) [α-isomethyl ionone] | – | – | inhibited
CC(=O)C=CC1=C(C)CCCC1(C)C [β-ionone, 4-(2,6,6-trimethyl-1-cyclohexen-1-yl)-3-buten-2-one] | – | – | inhibited
CC(=O)c1ccc2ccccc2c1 [β-methyl naphthyl ketone] | – | – | inhibited
CCCCCCCC1CCC(=O)O1 (centres unmarked) [γ-undecalactone] | – | – | inhibited
CC1C/C=C/CCCCCCCCCC(=O)C1 (centres unmarked) [δ-muscenone, (5E)-3-methylcyclopenta-5-decen-1-one] | – | – | inhibited
ethyl-(3aα,4α,7α,3aα)-octahydro-4,7-methano-3aH-indene-3a-carboxylate [Fruitate] | – | – | inhibited
